# Test results taken from patent US8673974B2, “Substituted amino bisphenyl pentanoic acid derivatives as NEP inhibitors” (Novartis AG, priority 2010, dated 2014).
# Molecular target: T1, recombinant human neutral endopeptidase (NEP, EC 3.4.24.11) (Homo sapiens, UniProt P08473)
# T1 construct: made in house; host or cells: insect cells
# Assay: in vitro inhibition of recombinant human neutral endopeptidase (fluorescence lifetime assay)
# Format: biochemical
# Settings: recombinant human NEP 7 pM, 1 hour pre-incubation, substrate Cys(PT14)-Arg-Arg-Leu-Trp-OH 0.7 μM, read after 1 hour at room temperature, pH 7.4
# From the text: The activity of a compound according to the present invention can be assessed by the following in vitro & in vivo methods and/or by the following in vitro & in vivo methods well-described in the art. See A fluorescence lifetime-based assay for protease inhibitor profiling on human kallikrein 7 Doering K, Meder G, Hinnenberger M, Woelcke J, Mayr L M, Hassiepen U Biomol Screen.
# In particular, the in vitro inhibition of recombinant human neutral endopeptidase (NEP, EC 3.4.24.11) can be determined as follows: […]
# T1 sequence (P08473 whole entry): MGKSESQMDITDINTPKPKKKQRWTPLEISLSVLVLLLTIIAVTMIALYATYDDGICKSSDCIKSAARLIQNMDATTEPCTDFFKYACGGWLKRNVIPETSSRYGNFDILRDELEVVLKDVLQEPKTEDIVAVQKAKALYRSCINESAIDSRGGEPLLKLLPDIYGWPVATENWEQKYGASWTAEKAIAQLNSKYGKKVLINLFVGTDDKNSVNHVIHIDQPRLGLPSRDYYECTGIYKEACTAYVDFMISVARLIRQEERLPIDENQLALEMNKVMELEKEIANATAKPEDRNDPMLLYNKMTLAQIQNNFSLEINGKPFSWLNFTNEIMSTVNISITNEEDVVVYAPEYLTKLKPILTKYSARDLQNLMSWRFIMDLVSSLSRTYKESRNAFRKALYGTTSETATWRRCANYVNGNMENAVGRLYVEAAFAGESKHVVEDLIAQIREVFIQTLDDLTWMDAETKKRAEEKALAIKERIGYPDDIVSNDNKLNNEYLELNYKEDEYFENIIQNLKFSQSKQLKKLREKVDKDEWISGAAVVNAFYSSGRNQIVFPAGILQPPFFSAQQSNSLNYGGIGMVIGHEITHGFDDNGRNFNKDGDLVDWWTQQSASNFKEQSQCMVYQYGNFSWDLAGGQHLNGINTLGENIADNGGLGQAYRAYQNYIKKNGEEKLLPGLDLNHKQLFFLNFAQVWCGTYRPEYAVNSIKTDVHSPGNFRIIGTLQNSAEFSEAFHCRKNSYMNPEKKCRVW
compound,measurement,value
"COc1ccccc1-c1ccc(C[C@H](CC(C)C(=O)O)NC(=O)CCC(=O)O)cc1 (stereo partly drawn) [Example 6, (S)-4-(3-Carboxy-propionylamino)-5-(2′-methoxy-biphenyl-4-yl)-2-methyl-pentanoic acid]",IC50,3 nM
